# Assay results taken from patent US8987332B2, “Methods of treating inflammatory conditions” (The Regents of the University of California, priority 2009, dated 2015).
# Assays:
# 3T3-L1 adipocytes [1] = experiment: GLUT4 translocation and 2-deoxyglucose uptake in 3T3-L1 adipocytes; type: cell-based; details: for glucose transport: pretreated 30 min
# Protocol: FIG. 4. GPR120 activation enhances GLUT4 translocation and glucose uptake. (A) 3T3-L1 adipocytes were transfected with a dually tagged HA-GLUT4-GFP construct. Total GLUT4 expression was determined by GFP fluorescence, and GLUT4 translocation to the cell surface after 100 ng/ml insulin or 100 μM DHA stimulation for 30 min was determined by indirect immunofluorescence of the HA-conjugated with Alexa 594 in fixed cells. Translocation following insulin stimulation was expressed as a percentage of the maximum response. Bar graph represents the mean±SEM data from four independent experiments. *, p<0.05 vs. vehicle treatment. (B) Glucose uptake was measured in WT and GPR120 KO mouse primary adipose tissue and in (C-F) 3T3-L1 adipocytes±siRNA with the indicated treatment. […] Data are expressed as mean±SEM of three independent experiments in triplicate. *, p<0.05 vs. basal activity. The indicated siRNA knockdown efficiency was validated by western blotting. See also FIG. 10.
# HA-GLUT4-eGFP expression vector were electroporated into day 8 post differentiated 3T3-L1 adipocytes for monitoring of GLUT4 translocation as previously described (Yoshizaki et al., 2007). For 2-DOG assay, 3T3-L1 adipocytes were pretreated for 30 min with the indicated drug; and stimulated with 3 ng/ml of insulin for 30 min at 37° C. L6 myocytes were pretreated for 30 min with 100 μM DHA and then stimulated with 100 ng/ml of insulin for 30 min. Glucose uptake was measured as previously described (Imamura et al., 1999).
# RAW 264.7 cells [2] = experiment: LPS-induced inflammatory signaling and cytokine secretion in RAW 264.7 cells; type: cell-based, mouse; details: for LPS-induced phosphorylation of JNK and IKKβ, IκB degradation, cytokine secretion and inflammatory gene expression level: pretreated 1 hr
# Excerpt: FIG. 1. Expression level of GPR120 and GPR120-mediated anti-inflammatory response in RAW 264.7 cells. (A) The mRNA expression pattern of various lipid sensing GPCRs is shown in adipose tissue, (B) CD11c+ bone marrow-derived dendritic cells (BMDCs), bone marrow-derived macrophages (BMDMs), IPMacs, 3T3-L1 preadipocytes, differentiated 3T3-L1 adipocytes, RAW 264.7 cells and L6 myocytes. Ribosomal protein S3 (RPS3) was used as internal control. (C) Expression of GPR120 in SVF, adipocytes and hepatic Kupffer cells from chow (NC)- or HFD-fed mice was examined by q-PCR. Data are expressed as the mean±SEM of at least three independent experiments in triplicate. *, p<0.05 versus NC. (D) RAW 264.7 cells, transfected with scrambled (Scr) or GPR120 #2 siRNA (GPR120 KD), were treated with 100 μM of GW9508 for 1 hr prior to LPS (100 ng/ml) treatment for 10 min and then subjected to western blotting. […] (E) Cytokine secretion level was measured in RAW 264.7 cells by ELISA. Data are expressed as the mean±SEM of three independent experiments. *, p<0.05 versus LPS treatment in scrambled siRNA transfected cells. See also FIGS. 8 and 9.
# Proteins from tissues or cell lysates were extracted with radioimmune precipitation buffer in the presence of phosphatase inhibitors and protease inhibitors (Roche Applied Science). […] of proteins/lane were separated on a 10% polyacrylamide, precast SDS gel (Bio-Rad) followed by transfer on polyvinylidene difluoride membrane (Immobilon, Millipore), and western blotting was performed as described (Nguyen et al., 2005) with indicated antibodies. For immunoprecipitations, lysates were incubated with 1 μg of anti-β-arrestin2, TAK1 antibody (Cell signaling), or GFP antibody (Santa Cruz Biotechnology) overnight at 4° C. and immune complexes precipitated with Protein A/G-conjugated beads (Invitrogen). Beads were washed with PBS and resuspended in sample buffer. Lysates and immune complexes were separated by SDS-PAGE, subjected to western blotting.
# TNF-α and IL-6 were directly quantified from RAW 264.7 cells with or without GPR120 knockdown, or IPMacs culture medium. Cells were treated with 100 μM GW9508 or DHA for 1 hr prior to treat 100 ng/ml LPS for 6 hr and then collect medium from the cells and subjected to ELISA according to the manufacturer's instructions (BIOSOURCE). For GLP-1 measurement, mouse blood was collected 1 hr after indicated diet feeding. Adequate inhibitors (protease inhibitors and Diprotin A as DPP IV inhibitor) were used while blood was collecting and then subjected to ELISA to the manufacturer's instructions (ALPCO, Salem, N.H.).
# RAW 264.7 cells [3] = experiment: ERK1/2 phosphorylation in RAW 264.7 cells; type: cell-based, mouse; details: 100 μM, 5 min
# Protocol: FIG. 9, related to FIGS. 2 and 3. DHA-stimulated GPR120 inhibits TNF-α, TLR2 and TLR3-induced inflammation via a β-arrestin2 dependent mechanism. (A) ERK1/2 phosphorylation stimulated by GPR120 activation in RAW 264.7 cells transfected with scrambled or GPR120 siRNA. Cells were treated with 100 μM of DHA, α-linolenic acid or palmitic acid for 5 min. […] Data are expressed as the mean±SEM of three independent experiments. *, p<0.05 versus scrambled siRNA transfected cells. (B) Differentiated 3T3-L1 adipocytes were transfected with scrambled or GPR120 siRNA (GPR120 KD) and then 48 hr after siRNA transfection, cells were treated with 100 μM of DHA or GW9508 for 1 hr prior to TNF-α (10 ng/ml) treatment for 7 min prior to harvesting and then subjected to western blotting with the indicated antibodies. (C) RAW 264.7 cells, transfected with scrambled or GPR120 siRNA (GPR120 KD), were treated with 100 μM of DHA for 1 hr prior to 10 min TLR2 ligand, Pam3CSK4 (50 ng/ml), or TLR3 ligand, poly(I:C) (1 μg/ml), treatment and then subjected to western blotting. (D) To characterize the interaction site between β-arrestin2 and GPR120 or TAB1, HA-tagged GPR120 and FLAG-tagged serial C-terminal deletion mutants of β-arrestin2 (full, 1-300, 1-253, 1-176, and 1-163) or an N-terminal deletion mutant (80-410) were cotransfected in 293 cells. For immunoprecipitation of FLAG-βarr2 and HA-GPR120, cells were treated with DHA for 30 min, while DHA was used for 1 hr to detect endogenous TAB1 and FLAG-βarr2 interactions.
# (§1) Proteins from tissues or cell lysates were extracted with radioimmune precipitation buffer in the presence of phosphatase inhibitors and protease inhibitors (Roche Applied Science). […] of proteins/lane were separated on a 10% polyacrylamide, precast SDS gel (Bio-Rad) followed by transfer on polyvinylidene difluoride membrane (Immobilon, Millipore), and western blotting was performed as described (Nguyen et al., 2005) with indicated antibodies. […]
# L6 myocytes = experiment: 2-deoxyglucose uptake in L6 myocytes; type: cell-based; details: 100 μM, compared to vehicle treated cells
# Protocol: FIG. 11, related to FIG. 5. Hyperinsulinemic/euglycemic clamp studies in bone marrow transplanted animals and muscle expression of GPR120. For bone marrow transplantation studies, WT or GPR120 KO mouse bone marrow (BM) was injected into irradiated WT C57B1/6 animals after 8 weeks for BM reconstitution, GPR120 was >90% reduced in circulating monocytes. Animals were then kept on either chow or switched to 60% HFD for weeks (±supplemention with ω-3 FAs for 5 weeks). (A) BMT GPR120 KO animals on chow are insulin resistant compared to WT controls. This effect is mediated by decreased GIR and a greater suppression of HGP in WT animals compared to KOs (n=5 for WT and n=6 per KO group). (B) BMT GPR120 KO animals on HFD supplemented with […] FAs (+ω3) are insulin resistant compared to WT controls. This effect is shown by decreased GIR, decreased IS-GDR, and a greater suppression of HGP in WT animals compared to KOs. (C) GPR120 expression levels in various tissues. RPS3 was the internal control for normalization. GPR120 is not expressed in soleus, or EDL muscle. […] Data are expressed as mean±SEM. *, p<0.05 compared to WT in (A) and (B).
# HA-GLUT4-eGFP expression vector were electroporated into day 8 post differentiated 3T3-L1 adipocytes for monitoring of GLUT4 translocation as previously described (Yoshizaki et al., 2007). […] Glucose uptake was measured as previously described (Imamura et al., 1999).
# IPMacs from WT mice = experiment: In vitro transwell chemotaxis assay, WT IPMacs; type: cell-based, mouse; details: pretreatment 3 hr before exposure to 3T3-L1 adipocyte conditioned media
# Protocol: (§2) It seemed possible that the reduction in ATM content in WT animals on the ω-3 FA diet reflected decreased chemotaxis of macrophages. To test this hypothesis, we measured the migratory capacity of IPMacs from WT and GPR120 KO mice using an in vitro transwell chemotaxis assay. […] Similar experiments were performed using the specific chemokine, monocyte chemotactic protein-1 (MCP-1) as a chemoattractant, rather than CM, and these experiments yielded identical results (FIG. 6D).
# In vitro chemotaxis assay was performed as previously described (Patsouris et al., 2009). Briefly, mature 3T3-L1 adipocytes, more than 99% of cells showing large lipids droplets (12 days after differentiation protocol initiation), were used for preparation of conditioned media. […] For the migration per se, 100,000 IPMacs from WT or GPR120 KO mice were used per condition. The IPMacs were placed in the upper chamber of an 8 μm polycarbonate filter (24-transwell format; Corning, Lowell, Mass.), whereas adipocyte conditioned medium or MCP-1 treatment was placed in the lower chamber. After 3 hr of migration, cells were fixed in formalin and stained with 4′,6-diamidino-2-phenylindole and observed.
# WT mice on 60% HFD = experiment: Hyperinsulinemic/euglycemic clamp in HFD-fed WT mice; type: in vivo, mouse; details: gavage 300 μl EPAX 1050TG, clamp 4 hr after gavage, vs saline
# [4] = system: IPMacs from GPR120 KO mice; experiment: In vitro transwell chemotaxis assay, GPR120 KO IPMacs; type: cell-based, mouse; details: pretreatment before exposure to conditioned media
# Protocol: as §2
# In vitro chemotaxis assay was performed as previously described (Patsouris et al., 2009). Briefly, mature 3T3-L1 adipocytes, more than 99% of cells showing large lipids droplets (12 days after differentiation protocol initiation), were used for preparation of conditioned media. Treatment with the 100 μM DHA for 6 hr was performed in serum-free DMEM cultured IPMacs. For the migration per se, 100,000 IPMacs from WT or GPR120 KO mice were used per condition. The IPMacs were placed in the upper chamber of an 8 μm polycarbonate filter (24-transwell format; Corning, Lowell, Mass.), whereas adipocyte conditioned medium or MCP-1 treatment was placed in the lower chamber. After 3 hr of migration, cells were fixed in formalin and stained with 4′,6-diamidino-2-phenylindole and observed.
# 3T3-L1 adipocytes [5] = experiment: Akt and IRS-1 phosphorylation in 3T3-L1 adipocytes (western blotting); type: cell-based
# Protocol: FIG. 10, related to FIG. 4. DHA activates Akt phosphorylation in a GPR120-dependent manner. (A) Differentiated 3T3-L1 adipocytes were transfected with scrambled or GPR120 siRNA and then 48 hr after siRNA transfection, cells were treated with 100 μM of DHA 30 min prior to insulin (3 ng/ml) treatment for 7 min followed by western blotting with phosphorylated Akt (S473) antibody. […] Data are expressed as the mean±SEM of three independent experiments. *, p<0.05 versus basal. (B) Cells were treated with the PI3K inhibitor LY294002 (50 μM) for 30 min before DHA (100 μM) or insulin (3 ng/ml) treatment. (C) Phosphorylation of IRS-1 was detected after DHA or insulin treatment of 3T3-L1 adipocytes. (D) Schematic diagram of GPR120-mediated Akt activation in 3T3-L1 adipocytes.
# as §1
# [6] = 100 μM 1 hr prior to LPS 100 ng/ml 10 min
smiles,measurement,setting,value
O=C(O)CCc1ccc(NCc2cccc(Oc3ccccc3)c2)cc1 [GW9508],glucose transport,3T3-L1 adipocytes [1],stimulatory effect
same,IκB degradation,RAW 264.7 cells [2]; [6],prevented
same,LPS stimulated phosphorylation of IKKβ and JNK,RAW 264.7 cells [2]; [6],inhibited
same,TNF-α and IL-6 secretion,"RAW 264.7 cells [2]; 100 μM 1 hr prior to LPS 100 ng/ml 6 hr, ELISA",inhibited
same,"LPS-induced phosphorylation of JNK and IKKβ, IκB degradation, cytokine secretion and inflammatory gene expression level",RAW 264.7 cells [2]; RAW 264.7 cells,strongly inhibited
CC/C=C\C/C=C\C/C=C\C/C=C\C/C=C\C/C=C\CCC(=O)O [DHA],ERK phosphorylation,RAW 264.7 cells [3],activated
same,glucose uptake,L6 myocytes,not altered
same,inhibition of chemotactic capacity,IPMacs from WT mice,80%
same,whole body glucose homeostasis after acute treatment,WT mice on 60% HFD,no effect
same,GLUT4 translocation to the cell surface,"3T3-L1 adipocytes [1]; 100 μM, 30 min",increased
same,effect on glucose uptake relative to the effect of insulin,3T3-L1 adipocytes [1]; 3T3-L1 adipocytes,30-50%
same,glucose transport,3T3-L1 adipocytes [1],increase
same,LPS-induced TAK1 and MKK4 phosphorylation,RAW 264.7 cells [2]; RAW 264.7 cells,abrogated
same,"LPS-induced phosphorylation of JNK and IKKβ, IκB degradation, cytokine secretion and inflammatory gene expression level",RAW 264.7 cells [2]; RAW 264.7 cells,strongly inhibited
same,effect on chemotactic capacity,[4],no significant effect
same,IRS-1 phosphorylation,3T3-L1 adipocytes [5],did not stimulate
same,phosphorylation of Akt,3T3-L1 adipocytes [5]; 100 μM,modest effect
CC/C=C\C/C=C\C/C=C\CCCCCCCC(=O)O [α-linolenic acid],ERK phosphorylation,RAW 264.7 cells [3],activated
CCCCCCCCCCCCCCCC(=O)O [palmitic acid],ERK phosphorylation,RAW 264.7 cells [3],activated
